Data as given in patent US9243281B2, “Neuroprotective chemicals and methods for identifying and using same” (Board of Regents of The University of Texas System, priority 2013, dated 2016).

What was measured:
[1] = test system: hippocampal neurogenesis (Dentate Gyrus); experiment: in vivo neurogenesis assay (BrdU+ cells in dentate gyrus); set-up: species or system mice
Source text: The screen was simple in concept. With help from chemists in the Department of Biochemistry at UTSWMC, we selected 1,000 druglike chemicals from the 250,000 compounds in our high throughput screening center. The compounds were selected to preserve representative chemical diversity of the entire library. They were further selected to enhance the representation of chiral molecules, and to avoid untoward chemical properties such as reactive moieties. The 1,000 molecules were randomly pooled into groups of ten, and each pool was administered directly into the left ventricle of two adult mice. Intracranial delivery was facilitated by stereotactic positioning of a canula fed directly by an Alzet mini-pump containing the mixture of ten chemicals. The drug mixture was administered over a week-long period at concentrations anticipated to deliver mid-nanomolar levels of the ten test compounds. Daily injections of the thymidine analog, bromodeoxyuridine (BrdU), were coadministered in order to monitor the formation of new hippocampal nerve cells. Following compound administration, animals were sacrificed such that brain tissue could be recovered, sectioned and stained with antibodies to BrdU. […]

[2] = molecular target: T1, p70 (NAMPT) (Homo sapiens, UniProt P43490); experiment: binding competition for photo-crosslinking of P7C3-S326 to p70 in H2122 cells; details: 0.3 μM P7C3-S326 plus 5 μM competitor, p70 band intensity, P7C3-S326 alone compared with plus competitor, vehicle 1.0
T1 construct: endogenous in cells; host or cells: H2122 lung cancer cells
T1 sequence (P43490 whole entry): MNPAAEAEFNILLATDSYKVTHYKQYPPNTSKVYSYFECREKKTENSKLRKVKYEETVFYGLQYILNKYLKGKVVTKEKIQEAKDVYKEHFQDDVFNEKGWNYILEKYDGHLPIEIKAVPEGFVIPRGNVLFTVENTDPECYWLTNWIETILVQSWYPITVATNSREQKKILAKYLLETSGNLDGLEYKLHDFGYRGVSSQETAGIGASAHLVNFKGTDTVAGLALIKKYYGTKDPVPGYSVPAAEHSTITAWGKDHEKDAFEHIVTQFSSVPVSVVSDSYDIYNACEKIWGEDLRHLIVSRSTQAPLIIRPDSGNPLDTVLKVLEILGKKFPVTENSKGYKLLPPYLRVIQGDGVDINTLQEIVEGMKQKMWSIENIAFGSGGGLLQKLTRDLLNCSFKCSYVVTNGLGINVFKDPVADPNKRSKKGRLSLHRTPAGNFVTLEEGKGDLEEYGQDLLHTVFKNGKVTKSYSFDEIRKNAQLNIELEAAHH
Experimental: Cultured cells were co-exposed to P7C3-S326 (0.3 uM) and the individual P7C3 variants (5 uM), exposed to UV light, lysed, clicked to a fluorescent dye and run on SDS gels (FIG. 11).
P7C3-S326 was diluted to 0.3 μM in culture medium to treat H2122 cells. After incubation at 37° C. for 2 hours, H2122 cells were irradiated for 15 minutes under 306 nm ultraviolet light in a Stratalinker 2400 (Stratagene). Cells were then harvested by dissolving in 1% SDS lysis buffer 50 mM HEPES, pH 8.0, 2 mM MgCl2, 10 mM KCl, 1% SDS, 50 units/ml of Benzonase (Sigma), supplemented with Sigmafast protease inhibitor (Sigma).
The reaction was incubated at room temperature with constant agitation at 1,000 rpm on a thermomixer (Eppendorf) for 1 hour. Samples were then mixed with SDS sample loading buffer and loaded on an 8% SDS-PAGE gel, separated, and imaged using a Typhoon imager (filter settings: excitation 533 nm, emission 555 nm, and high sensitivity).
H2122 cells were incubated with the P7C3-S326 (0.3 μM) in the absence or presence of P7C3 analogs for 2 hours following by UV crosslinking. […] The samples were run on SDS-PAGE gels scanned using a Typhoon Imager. The p70 band intensity was analyzed and quantified by Image J, and the relative intensity in each assay was normalized to that of the DMSO control.

[3] = living mice, vehicle (DMSO) 7.3

SMILES	Neurogenesis # BrdU+ Cells (X10E06)/mm3 Dentate Gyrus [1, 3]	Binding competition [2]	Neurogenesis # BrdU+ Cells (X10E06)/mm3 Dentate Gyrus ([1]; mouse, in vivo)
O[C@H](COc1ccccc1)Cn1c2ccc(Br)cc2c2cc(Br)ccc21 [S41]	15.3 (X10E06)/mm3	3.4	
O=C(Cn1c2ccc(Br)cc2c2cc(Br)ccc21)NO [S231]	13.1 (X10E06)/mm3	1.7	
CC(C)(C)OC(=O)NCCCCCOc1ccc(S(=O)(=O)CC(O)Cn2c3ccc(Br)cc3c3cc(Br)ccc32)cc1 (stereo not shown) [S141]	11.3 (X10E06)/mm3	2.7	
CC(C)NCC(O)CN1c2ccccc2CCc2ccccc21 (stereo not shown) [S144]	9.1 (X10E06)/mm3	1.4	
CCOC(=O)C1=NCc2c(c3ccccc3n2S(=O)(=O)c2ccc(C)cc2)N1 [S247]	15.6 (X10E06)/mm3	1.6	
[N-]=[N+]=Nc1ccc(NCC(O)Cn2c3ccc(Br)cc3c3cc(Br)ccc32)cc1 (stereo not shown) [S48]	14.5 (X10E06)/mm3	3.4	
CNCCCN1c2ccccc2CCc2ccccc21.Cl [S87, Desipramine, reference compound]	14.7 (X10E06)/mm3	1.2	
Cc1ccc2c(c1)c1c(n2CC(O)CNc2ccccc2)CCN(C)C1 (stereo not shown) [S46]	9.2 (X10E06)/mm3	1.9	
O=S(=O)(CC(O)Cn1c2ccc(Br)cc2c2cc(Br)ccc21)c1ccc(OCCF)cc1 (stereo not shown) [S156]	15.0 (X10E06)/mm3	1.2	
OC(COc1ccccc1)Cn1c2ccccc2c2cc(Br)ccc21 (stereo not shown) [S150]	8.4 (X10E06)/mm3	4.1	
N[C@@H]1C[C@H]1c1ccccc1 [S118, Parnate, reference compound]		1.3	8.3 (X10E06)/mm3
COc1c(Br)cc(OC)c2c1c1cc(Br)ccc1n2CC(O)CNc1ccccc1 (stereo not shown) [S160]	13.1 (X10E06)/mm3	4.3	
N=c1ccccn1CC(O)Cn1c2ccc(Br)cc2c2cc(Br)ccc21 (stereo not shown) [S5]	12.2 (X10E06)/mm3	1.4	
O=C(O)Cn1c2ccc(Br)cc2c2cc(C(=O)O)ncc21 [S227]	12.9 (X10E06)/mm3	0.9	
NCC(O)CN1c2ccccc2CCc2ccccc21 (stereo not shown) [S140]	11.7 (X10E06)/mm3	1.2	
COc1ccc(NCC(F)Cn2c3ccc(Br)cc3c3cc(Br)ccc32)cc1 (stereo not shown) [S60]	12.6 (X10E06)/mm3	1.4	
O=C1CC2(CCCC2)CC(=O)N1CCCCN1CCN(c2ncccn2)CC1 [S127, Buspar, reference compound]	6.9 (X10E06)/mm3	1.2	
COCC(O)Cn1c2ccc(Br)cc2c2cc(Br)ccc21 (stereo not shown) [S19]	10.5 (X10E06)/mm3	2.9	
COc1ccc2[nH]cc(CCNC(C)=O)c2c1 [S193]	7.8 (X10E06)/mm3	1.1	
OC(CNc1ccccc1)Cn1c2ccc(Br)cc2c2cc(Br)ncc21 (stereo not shown) [S30]	14.3 (X10E06)/mm3	3.3	
OC(CSc1ccccc1)Cn1c2ccc(Br)cc2c2cc(Br)ccc21 (stereo not shown) [S7]	15.5 (X10E06)/mm3	2.0	
CN(C)CC(F)CN1c2ccccc2CCc2ccccc21 (stereo not shown) [S148, reference compound]	11.3 (X10E06)/mm3	1.3	
O=C(O)CN1c2ccccc2CCc2ccccc21 [S210]	10.7 (X10E06)/mm3	1.1	
OC(COc1ccccc1)CN1c2ccccc2CCc2ccccc21 (stereo not shown) [S135]	7.1 (X10E06)/mm3	3.4	
CNCCC(Oc1ccc(C(F)(F)F)cc1)c1ccccc1 (stereo not shown) [S122, Prozac, reference compound]	10.0 (X10E06)/mm3	1.4	

SMILES	Neurogenesis # BrdU+ Cells (X10E06)/mm3 Dentate Gyrus [1, 3]	Binding competition [2]	Neurogenesis # BrdU+ Cells (X10E06)/mm3 Dentate Gyrus ([1]; mouse, in vivo)
O=C(O)CCc1c[nH]c2ccccc12 [S242]	10.8 (X10E06)/mm3	1.2	
COc1ccc(SCC(O)Cn2c3ccc(Br)cc3c3cc(Br)ccc32)cc1 (stereo not shown) [S78]	14.1 (X10E06)/mm3	2.7	
COc1cccc(NCC(O)CN2c3ccc(Br)cc3CCc3cc(Br)ccc32)c1 (stereo not shown) [S76]	14.2 (X10E06)/mm3	1.1	
OC(COc1ccccn1)Cn1c2ccc(Br)cc2c2cc(Br)ccc21 (stereo not shown) [S147]	13.3 (X10E06)/mm3	3.4	
CNCC(O)CN1c2ccccc2CCc2ccccc21 (stereo not shown) [S143]	7.3 (X10E06)/mm3	1.3	
N#Cc1ccc2c(c1)c1ccccc1n2CC(O)COc1ccccc1 (stereo not shown) [S138]	10.4 (X10E06)/mm3	6.5	
NC(=O)c1ccc2c(c1)c1cc(Br)ccc1n2CC(O)COc1ccccc1 (stereo not shown) [S146]	14.5 (X10E06)/mm3	2.8	
CN(C)C(=O)Cn1c2ccc(Br)cc2c2cc(Br)ccc21 [S215]	8.3 (X10E06)/mm3	3.6	
Oc1ccc(SCC(O)Cn2c3ccc(Br)cc3c3cc(Br)ccc32)cc1 (stereo not shown) [S92]	8.4 (X10E06)/mm3	2.5	
O[C@@H](COc1ccccc1)Cn1c2ccc(Br)cc2c2cc(Br)ccc21 [S40]	8.1 (X10E06)/mm3	2.8	
CN(C)CCCN1c2ccccc2Sc2ccc(Cl)cc21 [S121, CPZ, reference compound]	11.1 (X10E06)/mm3	2.3	
CNCC(F)CN1c2ccccc2CCc2ccccc21 (stereo not shown) [S152]	13.4 (X10E06)/mm3	1.6	
[O-][S+](CC(O)Cn1c2ccc(Br)cc2c2cc(Br)ccc21)c1ccccc1 (stereo not shown) [S27]	8.1 (X10E06)/mm3	2.8	
O=S(=O)(CC(O)Cn1c2ccc(Br)cc2c2cc(Br)ccc21)c1ccccc1 (stereo not shown) [S28]	13.6 (X10E06)/mm3	2.8	
N#Cc1cc2c3cc(Br)ccc3n(CC(O)COc3ccccc3)c2cn1 (stereo not shown) [S192]	10.5 (X10E06)/mm3	4.2	
Cc1cc(Br)cc2c3cc(Br)cc(C)c3n(CC(O)CNc3ccccc3)c12 (stereo not shown) [S161]	11.4 (X10E06)/mm3	3.1	
Cc1ccc2[nH]c3ccc(Br)cc3c2c1 [S228]	20.2 (X10E06)/mm3	2.0	
C=C/C=N\C=C\NCC(O)Cn1c2ccc(Br)cc2c2cc(Br)ccc21 (stereo not shown) [S58]	7.2 (X10E06)/mm3	2.5	
O=S(=O)(C[C@@H](O)Cn1c2ccc(Br)cc2c2cc(Br)ccc21)c1ccccc1 [S50]	16.2 (X10E06)/mm3	3.8	
OC(COc1ccccc1)Cn1c2ccc(Br)cc2c2cc(Br)ccc21 (stereo not shown) [S39]	14.8 (X10E06)/mm3	2.6	
[O-][n+]1ccc2c(c1)c1cc(Br)ccc1n2CC(O)COc1ccccc1 (stereo not shown) [S195]	9.0 (X10E06)/mm3	1.1	
O=C(O)c1cc2c3cc(Br)ccc3n(CC(O)COc3ccccc3)c2cn1 (stereo not shown) [S173]	12.8 (X10E06)/mm3	1.0	
FC(COc1ccccc1)Cn1c2c(c3cc(Br)ccc31)CNCC2 (stereo not shown) [S108]	7.6 (X10E06)/mm3	1.0	
OC(CNc1cccc2ccccc12)Cn1c2ccc(Cl)cc2c2cc(Cl)ccc21 (stereo not shown) [S184]	6.7 (X10E06)/mm3	2.5	
CCOC(=O)c1ncc2c(n1)c1ccccc1n2S(=O)(=O)c1ccc(C)cc1 [S246]	14.5 (X10E06)/mm3	1.3	
